Holding throughout (type): in vivo, Wistar rats
In experiment [1] the test system is TNF-α. The experiment in a line: TNF-α mRNA and protein (ELISA) in frontal cortex and plasma after ethanol intoxication. Particulars: OEA pre-treatment. The method, then:
(§1) The animals were treated with intragastric (i.g.) ethanol 3 times a day using an i.g. cannula (16G needle, Fisher Scientific, Waltham, Mass., USA), following a protocol based on a slightly modified standard 4-day alcohol intoxication pattern (Bernier et al., 2002a, b) (FIG. 1A). The ethanol doses were administered every 8 h for a total time of 4 days. The rats treated with ethanol received an initial loading dose of 5 g/kg of ethanol in a 30% solution (w/v) and then a maximum maintenance dose of 3 g/kg, which were determined based on blood ethanol levels (BEL). This repeated standard alcohol intoxication paradigm kept BEL intoxication relatively constant in a range of sedation/ataxia (190 to 430 mg/dl, Table 3), according to the 6-point alcohol intoxication behavior scale (Majchrowicz, 1975). The mean dose of ethanol/rat/day (days 1-4) was 7.06 g/kg, similar to other studies (Obernier et al., 2002a, b). OEA (5 mg/kg, i.p., except initial dose of 10 mg/kg i.p.; synthesized as described in Giuffrida et al., 2000) was dissolved in the vehicle (5% Tween-80 in saline solution) and injected 10 minutes before each of the administrations of ethanol by an intragastric gavage. The anti-inflammatory activity of OEA at 10 mg/kg per intraperitoneal route in the frontal cortex before the injection of LPS (Sayd et al., 2014) was previously referred to. In this study, OEA is repeatedly injected as a pre-treatment before each administration of ethanol. […] The quantitative changes in mRNA levels were estimated by means of RT-PCR, carried out in the presence of the SYBR green primer using a 20-L reaction in a Rotor-Gene (Corbett Research®, Mortlake, NSW, Australia). […] The levels of soluble HMGB1, TNF-α, IL-1β and MCP-1 were determined by means of a commercially available enzyme-linked immunosorbent assay kit (ELISA) (Elabscience Biotechnology Co., Ltd., China, for HMGB-1; RayBiotech®, GA, USA, for TNF-α, IL-1β, and MCP-1). The nuclear/cytosol HMGB1 fraction was determined by means of Western blot analysis.
(In general: ELISA stands for enzyme-linked immunosorbent assay.)

The test system of experiment [2] is IL-1β. Nature of the experiment: IL-1β mRNA and protein (ELISA) in frontal cortex and plasma after ethanol intoxication. Conditions: OEA pre-treatment. The method, then: as §1
In experiment [3] the test system is rats. The experiment in a line: Forced swim test during acute ethanol withdrawal. Particulars: 48 h after last ethanol; OEA pre-treatment during intoxication. As to the method:
In this third experiment (n=25), the treatment with ethanol intoxication and pre-treatment with OEA applied in experiment 2 was repeated, and the animals were subjected to elevated plus maze test 24 h and 12 days after the last forced administration of ethanol and to the forced swim test 48 h after the ethanol intoxication protocol. The rats were subjected to the forced swim test two days after the last ethanol force-feeding (see FIG. 1C for the experimental design), and specific behaviors were recorded with a digital video camera for 5 minutes. These same rats were also subjected to the elevated plus maze test equipped with infrared light photography (Panlab, Barcelona, Spain) 1 and 12 days after the last ethanol force-feeding, where the animals were allowed to freely explore the maze for 5 minutes. The tests were performed 3 h after the start of the dark phase.

As for `CCCCCCCC/C=C\CCCCCCCC(=O)NCCO` [OEA, oleoylethanolamide], in experiment [1] (frontal cortex, ELISA), the “Ethanol-induced increase in TNF-α protein levels” value is given as “not prevented”. In addition, in experiment [1] (frontal cortex), the “Ethanol-induced increase in TNF-α mRNA” value is “did not prevent”. In experiment [1] (plasma, ELISA), the “Increase in plasma TNF-α after ethanol intoxication” value is “partially prevented”. For the same compound, the “Ethanol-induced increase in IL-1β protein levels” value in experiment [2] (frontal cortex, ELISA) is “prevented”. The “Ethanol-induced increase in IL-1β mRNA” value in experiment [2] (frontal cortex) is recorded as “did not prevent”. For the same compound, the “Ethanol-induced increase in IL-1β plasma levels” value in experiment [2] (plasma, ELISA) is recorded as “prevented”. In experiment [3], the “Forced swim test: immobility” value is “normalizing”, the “Forced swim test: latency” value is given as “normalizing” and the “Forced swim test: swimming” value is on record as “normalizing”.

(Values after patent US20190365675A1, “COMPOSITIONS FOR THE PREVENTION AND/OR TREATMENT OF ALCOHOL USE DISORDERS” (SERVICIO ANDALUZ DE SALUD, priority 2016, published 2019).)
